Reference: ChEMBL document CHEMBL1201862, “PubChem BioAssay data set” (2004)
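Assay format: 96-well plates, 48-hour exposure. GI50 marks 50% less growth.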 The source made the active and inactive calls. Cut-off read from the data, not from the text of the source: active = GI50 up to about 1.1 µM and inactive = higher.

Tests used:
Test in all cases: NCI-60 cell line screen, 48 h
T47D = system: T47D
SK-MEL-5 = system: SK-MEL-5
UO-31 = system: UO-31
NCI/ADR-RES = system: NCI/ADR-RES
COLO 205 = system: COLO 205
ACHN = system: ACHN
DU-145 = system: DU-145
SN12C = system: SN12C
A549 = system: A549
BT-549 = system: BT-549
SR = system: SR
NCI-H460 = system: NCI-H460
NCI-H23 = system: NCI-H23
M14 = system: M14
OVCAR-3 = system: OVCAR-3
SK-OV-3 = system: SK-OV-3
TK-10 = system: TK-10
OVCAR-5 = system: OVCAR-5
RPMI-8226 = system: RPMI-8226
MDA-MB-435 = system: MDA-MB-435
NCI-H226 = system: NCI-H226
PC-3 = system: PC-3
HCC 2998 = system: HCC 2998
SK-MEL-28 = system: SK-MEL-28
786-0 = system: 786-0
SF-268 = system: SF-268
OVCAR-4 = system: OVCAR-4
SF-295 = system: SF-295
HCT-116 = system: HCT-116
IGROV-1 = system: IGROV-1
HL-60 = system: HL-60
HT-29 = system: HT-29
MOLT-4 = system: MOLT-4
SNB-75 = system: SNB-75
LOX IMVI = system: LOX IMVI
Malme-3M = system: Malme-3M
HOP-92 = system: HOP-92
MDA-N = system: MDA-N
CCRF-CEM = system: CCRF-CEM
SW-620 = system: SW-620
MCF7 = system: MCF7
SNB-19 = system: SNB-19
K562 = system: K562
MDA-MB-231 = system: MDA-MB-231
A498 = system: A498
OVCAR-8 = system: OVCAR-8
UACC-62 = system: UACC-62
HCT-15 = system: HCT-15
HOP-62 = system: HOP-62
UACC-257 = system: UACC-257
EKVX = system: EKVX
U-251 = system: U-251
SK-MEL-2 = system: SK-MEL-2
NCI-H522 = system: NCI-H522
Hs-578T = system: Hs-578T
RXF 393 = system: RXF 393
SF-539 = system: SF-539
CAKI-1 = system: CAKI-1
KM12 = system: KM12

For `C[B@@-]1(c2ccc(C(F)(F)F)cc2)N[C@@H](Cc2ccccc2)C(=O)O1`, the GI50 (T47D) was > 100 µM (inactive), the GI50 (SK-MEL-5) was > 100 µM (inactive) and the GI50 (UO-31) was 88.1 µM (inactive). The GI50 (NCI/ADR-RES) was > 100 µM (inactive), the GI50 (COLO 205) was > 100 µM (inactive) and the GI50 (ACHN) was > 100 µM (inactive). For the same molecule, the GI50 (DU-145) was > 100 µM (inactive), the GI50 (SN12C) was > 100 µM (inactive) and the GI50 (A549) was > 100 µM (inactive). The GI50 (BT-549) was > 100 µM (inactive), the GI50 (SR) was > 100 µM (inactive) and the GI50 (NCI-H460) was > 100 µM (inactive). For the same molecule, the GI50 (NCI-H23) was > 100 µM (inactive), the GI50 (M14) was > 100 µM (inactive) and the GI50 (OVCAR-3) was > 100 µM (inactive). The GI50 (SK-OV-3) was > 100 µM (inactive), the GI50 (TK-10) was > 100 µM (inactive) and the GI50 (OVCAR-5) was > 100 µM (inactive). For the same molecule, the GI50 (RPMI-8226) was > 100 µM (inactive), the GI50 (MDA-MB-435) was > 100 µM (inactive) and the GI50 (NCI-H226) was > 100 µM (inactive). The GI50 (PC-3) was > 100 µM (inactive), the GI50 (HCC 2998) was > 100 µM (inactive) and the GI50 (SK-MEL-28) was > 100 µM (inactive). For the same molecule, the GI50 (786-0) was > 100 µM (inactive), the GI50 (SF-268) was > 100 µM (inactive) and the GI50 (OVCAR-4) was > 100 µM (inactive). For the same molecule, the GI50 (SF-295) was > 100 µM (inactive), the GI50 (HCT-116) was > 100 µM (inactive) and the GI50 (IGROV-1) was > 100 µM (inactive). The GI50 (HL-60) was 31.8 µM (inactive), the GI50 (HT-29) was > 100 µM (inactive) and the GI50 (MOLT-4) was > 100 µM (inactive). The GI50 (SNB-75) was 31.6 µM (inactive), the GI50 (LOX IMVI) was > 100 µM (inactive) and the GI50 (Malme-3M) was > 100 µM (inactive). For the same molecule, the GI50 (HOP-92) was 11.9 µM (inactive), the GI50 (MDA-N) was > 100 µM (inactive) and the GI50 (CCRF-CEM) was > 100 µM (inactive). The GI50 (SW-620) was > 100 µM (inactive), the GI50 (MCF7) was > 100 µM (inactive) and the GI50 (SNB-19) was > 100 µM (inactive). The GI50 (K562) was > 100 µM (inactive), the GI50 (MDA-MB-231) was > 100 µM (inactive) and the GI50 (A498) was > 100 µM (inactive). The GI50 (OVCAR-8) was > 100 µM (inactive), the GI50 (UACC-62) was > 100 µM (inactive) and the GI50 (HCT-15) was > 100 µM. The GI50 (HOP-62) was > 100 µM (inactive), the GI50 (UACC-257) was > 100 µM (inactive) and the GI50 (EKVX) was > 100 µM (inactive). For the same molecule, the GI50 (U-251) was > 100 µM (inactive).

For `N#CC(C#N)=Cn1c(=S)[nH]c2ccccc21`, the GI50 (T47D) was > 100 µM (inactive), the GI50 (SK-MEL-5) was > 100 µM (inactive) and the GI50 (UO-31) was > 100 µM (inactive). For the same molecule, the GI50 (NCI/ADR-RES) was > 100 µM (inactive), the GI50 (COLO 205) was > 100 µM (inactive) and the GI50 (ACHN) was > 100 µM (inactive). For the same molecule, the GI50 (DU-145) was > 100 µM (inactive), the GI50 (SN12C) was > 100 µM (inactive) and the GI50 (A549) was > 100 µM (inactive). For the same molecule, the GI50 (SR) was > 100 µM (inactive), the GI50 (NCI-H460) was > 100 µM (inactive) and the GI50 (NCI-H23) was > 100 µM (inactive). The GI50 (M14) was > 100 µM (inactive), the GI50 (SK-MEL-2) was > 100 µM (inactive) and the GI50 (OVCAR-3) was > 100 µM (inactive). The GI50 (NCI-H522) was > 100 µM (inactive), the GI50 (SK-OV-3) was > 100 µM (inactive) and the GI50 (TK-10) was > 100 µM (inactive). The GI50 (OVCAR-5) was > 100 µM (inactive), the GI50 (RPMI-8226) was > 100 µM (inactive) and the GI50 (MDA-MB-435) was > 100 µM (inactive). For the same molecule, the GI50 (NCI-H226) was > 100 µM (inactive), the GI50 (Hs-578T) was > 100 µM (inactive) and the GI50 (PC-3) was > 100 µM (inactive). The GI50 (HCC 2998) was > 100 µM (inactive), the GI50 (SK-MEL-28) was > 100 µM (inactive) and the GI50 (786-0) was > 100 µM (inactive). The GI50 (SF-268) was > 100 µM (inactive), the GI50 (OVCAR-4) was > 100 µM (inactive) and the GI50 (RXF 393) was > 100 µM (inactive). The GI50 (SF-295) was > 100 µM (inactive), the GI50 (HCT-116) was > 100 µM (inactive) and the GI50 (IGROV-1) was > 100 µM (inactive). The GI50 (HL-60) was > 100 µM (inactive), the GI50 (HT-29) was > 100 µM (inactive) and the GI50 (MOLT-4) was > 100 µM (inactive). The GI50 (SNB-75) was 50.8 µM (inactive), the GI50 (SF-539) was > 100 µM (inactive) and the GI50 (LOX IMVI) was > 100 µM (inactive). For the same molecule, the GI50 (Malme-3M) was > 100 µM (inactive), the GI50 (HOP-92) was 77.8 µM (inactive) and the GI50 (MDA-N) was > 100 µM (inactive). The GI50 (CCRF-CEM) was > 100 µM (inactive), the GI50 (CAKI-1) was > 100 µM (inactive) and the GI50 (SW-620) was > 100 µM (inactive). The GI50 (MCF7) was > 100 µM (inactive), the GI50 (SNB-19) was > 100 µM (inactive) and the GI50 (K562) was > 100 µM (inactive). For the same molecule, the GI50 (MDA-MB-231) was > 100 µM (inactive), the GI50 (A498) was > 100 µM (inactive) and the GI50 (OVCAR-8) was > 100 µM (inactive). The GI50 (UACC-62) was > 100 µM (inactive), the GI50 (KM12) was > 100 µM (inactive) and the GI50 (HOP-62) was > 100 µM (inactive). The GI50 (UACC-257) was > 100 µM (inactive), the GI50 (EKVX) was 78.3 µM (inactive) and the GI50 (U-251) was > 100 µM (inactive).
